Results as given in patent publication US20050245466A1, “Use of topoisomerase inhibitors and heat shock protein 90 inhibitors for use in chemotherapy” (THE UNIVERSITY OF LIVERPOOL, priority 2002, published 2005).

Key:
E.coli MC4100 = assay: Agar sensitivity plates, parental strain; format: cell-based; details: for zone of inhibition: parental strain MC4100
Description: (§1) 200 μl of an overnight culture of E.coli strains was spread over the surface of a LB plate. The plates were incubated for three hours at 37° C., and the discs (50 μl of drug) placed onto the plates that were then incubated at 37° C. overnight.
(§2) The plates were photographed the following day with Fluor-S™ Quantity 1 program and the results are illustrated in FIG. 18.
(§3) The inhibition of bacterial cell growth was assessed by examining the zones of inhibition around each disc containing the topo II inhibitor.

E.coli JGT11 (htpG null) = assay: Agar sensitivity plates, htpG null mutant; format: cell-based
Description: as §1, §2, §3

HtpG = HtpG (Escherichia coli, UniProt P0A6Z3); details: in vitro; cited from earlier work
[1] = MTD stated with the xenograft dosing; details: CD1 Nude, mouse, in vivo; mice
Description: Treatment with test agents was initiated when the mean individual tumour volume exceeded 1,000 mm^3. The mice were dosed at day 11 and day 22—([…] 10 mg/kg, VePesid 5 mg/kg, MTD […] 22 mg/kg (a non toxic form of 17AAG which can be tolerated at much higher doses) MTD VePesid 70 mg/kg.

HtpG, sequence (P0A6Z3 whole entry): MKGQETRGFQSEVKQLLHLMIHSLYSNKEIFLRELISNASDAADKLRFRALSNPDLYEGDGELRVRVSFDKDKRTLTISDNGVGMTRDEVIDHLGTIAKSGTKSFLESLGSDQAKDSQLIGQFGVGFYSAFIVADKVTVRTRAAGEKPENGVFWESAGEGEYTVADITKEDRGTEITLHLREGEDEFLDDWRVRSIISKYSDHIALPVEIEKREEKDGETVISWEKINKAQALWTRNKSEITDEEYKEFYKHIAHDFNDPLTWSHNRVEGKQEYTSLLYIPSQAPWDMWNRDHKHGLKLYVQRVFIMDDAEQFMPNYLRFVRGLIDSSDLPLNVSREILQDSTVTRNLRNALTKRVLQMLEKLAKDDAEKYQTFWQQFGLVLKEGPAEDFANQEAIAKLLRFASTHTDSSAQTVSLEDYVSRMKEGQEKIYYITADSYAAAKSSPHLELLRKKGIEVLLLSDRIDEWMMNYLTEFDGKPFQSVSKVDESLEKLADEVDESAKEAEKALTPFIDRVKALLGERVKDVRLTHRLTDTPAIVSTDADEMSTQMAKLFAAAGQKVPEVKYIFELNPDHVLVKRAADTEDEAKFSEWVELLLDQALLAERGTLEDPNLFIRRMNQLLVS

Compound | inhibition of growth (zones of inhibition) (E.coli MC4100; MC4100, discs in the range of 0.6-0.01 μM) | zone of inhibition (E.coli MC4100; 0.025 μM) | zone of inhibition (E.coli MC4100; 0.1 μM) | effect on growth versus parental strain (FIG. 18) (E.coli JGT11 (htpG null); JGT11, even at concentrations as low as 0.01 μM) | inhibition of growth (zones of inhibition) versus MC4100 (E.coli JGT11 (htpG null); htpG null mutant, discs in the range of 0.6-0.01 μM) | activity of HtpG (HtpG) | MTD [1] [mg/kg]
O=C(O)c1cn(C2CC2)c2cc(N3CCNCC3)c(F)cc2c1=O [Ciprofloxacin] | some inhibition of growth | no zone of inhibition | reduced zone of inhibition | significantly greater effect | increased inhibition | – | –
COC1=C2C[C@@H](C)C[C@H](OC)[C@H](O)[C@@H](C)/C=C(\C)[C@H](OC(N)=O)[C@@H](OC)/C=C\C=C(/C)C(=O)NC(=CC1=O)C2=O [Geldanamycin] | – | – | – | – | – | inhibits | 22
COc1cc([C@@H]2c3cc4c(cc3[C@@H](O[C@@H]3O[C@@H]5CO[C@@H](C)O[C@H]5[C@H](O)[C@H]3O)[C@H]3COC(=O)[C@H]23)OCO4)cc(OC)c1O [VePesid, Etoposide] | – | – | – | – | – | – | 70
